In patent US10221139B2, “Inhibitors of histone demethylases” (Gilead Sciences, Inc., priority 2012, dated 2019):

These molecules were tested on demethylation of H3K4 (H3K4me3 mark) in U2OS cells (assay: Histone lysine demethylase immunofluorescence assay, non-transfected U2OS cells (H3K4me3 staining)). Details: Homo sapiens, 20 hours.
Format: cell-based
Description: Histone Lysine Demethylase Immunofluorescence Assays for IC50 Value Determination, Non-Transfected Cells
U2OS cells were harvested and seeded into multi well plates into media containing compound. The media used was DMEM containing 5% FBS and pen/strep. 20 hours after incubation of cells with compounds, the cells were washed once in PBS, harvested by fixation with formaldehyde 4% aqueous solution, and washed 2 times in PBS. Subsequently, the cells were permeabilized in PBS with 0.2% Triton X-100 for 10 min at room temperature. Blocking was performed in PBS with 0.2% Triton X-100 and 5% FBS for 45 min at room temperature. The cells were incubated with αH3K4me3 primary antibody (Cell Signaling, #9751S) diluted 1:1000 in blocking solution over night at 4° C. After incubation with primary antibody, the cells were washed 3 times with PBS, incubated with secondary antibody diluted 1:1000 (Alexa fluor 594 goat anti rabbit IgG, Invitrogen, A11012) and Hoechst, 20 μg/ml (Sigma, 33342) in blocking solution, and washed again 3 times with PBS. Finally, PBS was added and high throughput imaging and analysis were performed by an IN Cell Analyzer 1000 (GE Healthcare). The IC50 values seen in Table 4 were based on an average measure of the staining of the H3K4me3 mark in cells.

SMILES | IC50
CCN(CCN(C)C)C(=O)CNCc1cc(C(=O)N(C)S(C)(=O)=O)ccn1 [drawing 247, 2-{[({[2-(dimethylamino)ethyl](ethyl)carbamoyl}methyl)amino]methyl}-N-methanesulfonyl-N-methylpyridine-4-carboxamide] | 1000 to 50000 nM
CCN(CC)CCCCNCc1cc(C(=O)OCCCN(C)C)ccn1 [drawing 230, 3-(dimethylamino)propyl 2-({[4-(diethylamino)butyl]amino}methyl) pyridine-4-carboxylate] | 1000 to 50000 nM

The molecules below were run on MCF7 cells (assay: MCF7 cell proliferation assay (ATPlite)). Details: Homo sapiens, 120 hours.
Format: cell-based
Description: MCF7 cells were seeded at 1250 cells/well in 50 μl medium/well in black 96 well plates. Cells were incubated for 24 hours before addition of compound. Compounds were diluted in complete medium (50 μl/well) and added to the plates in duplicates. The total volume of medium in the wells was 100 μl, and the final concentration of DMSO 0.5%. Complete medium used was DMEM with GlutaMAX containing 10% FBS and pen/strep.
120 hours after addition of compounds, the plates were harvested and analyzed by ATPlite 1 Step (Perkin Elmer, cat no 6016739) according to the manufactures recommendation. Briefly, 100 μl ATP lite solution was added to each well, plates were vortexed at 700 rpm 2 minutes, followed by 20 minutes incubation in the dark, and then analyzed for luminescence on EnSpire 2300 Mulitilabel reader (Perkin Elmer). EC50 values were calculated using GraphPad Prism 6.

SMILES | EC50
C=CC(CCN(C)C(=O)C(F)(F)F)OC(=O)c1ccnc(CNCC(=O)N(CC)CCN(C)C)c1 (stereo not shown) [drawing 284, 5-(2,2,2-trifluoro-N-methylacetamido)pent-1-en-3-yl 2-{[({[2-(dimethylamino)ethyl](ethyl)carbamoyl}methyl)amino]methyl}pyridine-4-carboxylate] | < 1000 nM
CCN(CCN(C)C)C(=O)CNCc1cc(C(=O)OCC(F)(F)F)ccn1 [drawing 292, 2,2,2-trifluoroethyl 2-{[({[2-(dimethylamino)ethyl](ethyl)carbamoyl}methyl)amino]methyl}pyridine-4-carboxylate] | 1000 to 50000 nM
CN(CCCc1nccn1C)C(=O)CNCc1cc(C(=O)O)ccn1 [drawing 261, 2-{[({methyl[3-(1-methyl-1H-imidazol-2-yl)propyl]carbamoyl}methyl)amino]methyl} pyridine-4-carboxylic acid] | 1000 to 50000 nM
CN(CCCNCc1cc(C(=O)O)ccn1)Cc1ccccc1F [drawing 264, 2-{[(3-{[(2-fluorophenyl)methyl](methyl)amino}propyl)amino]methyl}pyridine-4-carboxylic acid] | 1000 to 50000 nM
CCOC(=O)c1ccccc1OC(=O)c1ccnc(CNCC(=O)N(CC)CCN(C)C)c1 [drawing 276, 2-(ethoxycarbonyl)phenyl 2-{[({[2-(dimethylamino)ethyl](ethyl)carbamoyl}methyl)amino]methyl}pyridine-4-carboxylate] | 1000 to 50000 nM
O=C(O)c1ccnc(CNCC2CC2)c1 [drawing 257, 2-{[(cyclopropylmethyl)amino]methyl}pyridine-4-carboxylic acid] | 1000 to 50000 nM
CCN(CCN(C)C)C(=O)CNCc1cc(C(=O)Nc2ncco2)ccn1 [drawing 293, 2-{[({[2-(dimethylamino)ethyl](ethyl)carbamoyl}methyl)amino]methyl}-N-(1,3-oxazol-2-yl)pyridine-4-carboxamide] | 1000 to 50000 nM
CCCCCCCCCCCCCCCC(=O)OCC(COC(=O)c1ccnc(CNCC(=O)N(CC)CCN(C)C)c1)OC(=O)CCCCCCCCCCCCCCC (stereo not shown) [drawing 286, 1-(2-{[({[2-(dimethylamino)ethyl](ethyl)carbamoyl}methyl)amino]methyl}pyridine-4-carbonyloxy)-3-(hexadecanoyloxy)propan-2-yl hexadecanoate] | < 1000 nM
CCN(CCN(C)C)C(=O)CNCc1cc(C(=O)Oc2ccc(OC)cc2)ccn1 [drawing 275, 4-methoxyphenyl 2-{[({[2-(dimethylamino)ethyl](ethyl)carbamoyl}methyl)amino]methyl}pyridine-4-carboxylate] | 1000 to 50000 nM
CSCCNCc1cc(C(=O)O)ccn1 [drawing 258, 2-({[2-(methylsulfanyl)ethyl]amino}methyl)pyridine-4-carboxylic acid] | 1000 to 50000 nM
CCN(CC)CCCCNCc1cc(C(=O)Oc2ccc(OC)cc2)ccn1 [drawing 269, 4-methoxyphenyl 2-({[4-(diethylamino)butyl]amino}methyl)pyridine-4-carboxylate] | < 1000 nM
CCN(CCN(C)C)C(=O)CNCc1cc(C(=O)OC)ccn1 [drawing 287, methyl 2-{[({[2-(dimethylamino)ethyl](ethyl)carbamoyl}methyl)amino]methyl}pyridine-4-carboxylate] | < 1000 nM
CCN(CCN(C)C)C(=O)CNCc1cc(C(=O)Oc2ccc(C(C)(C)C)cc2)ccn1 [drawing 278, 4-tert-butylphenyl 2-{[({[2-(dimethylamino)ethyl](ethyl)carbamoyl}methyl)amino]methyl}pyridine-4-carboxylate] | < 1000 nM
O=C(O)c1ccnc(CNCCCN2CCC(Cc3ccccc3)CC2)c1 [drawing 265, 2-({[3-(4-benzylpiperidin-1-yl)propyl]amino}methyl)pyridine-4-carboxylic acid] | 1000 to 50000 nM
CCN(CCN(C)C)C(=O)CNCc1cc(C(=O)OC(C)CC(C)=O)ccn1 (stereo not shown) [drawing 279, 4-oxopentan-2-yl 2-{[({[2-(dimethylamino)ethyl](ethyl)carbamoyl}methyl)amino]methyl}pyridine-4-carboxylate] | < 1000 nM
CCN(CCC#N)C(=O)CNCc1cc(C(=O)O)ccn1 [drawing 263, 2-[({[(2-cyanoethyl)(ethyl)carbamoyl]methyl}amino)methyl]pyridine-4-carboxylic acid] | 1000 to 50000 nM
CCN(CC)CCCCNCc1cc(C(=O)Oc2c(C)cccc2C)ccn1 [drawing 274, 2,6-dimethylphenyl 2-({[4-(diethylamino)butyl]amino}methyl)pyridine-4-carboxylate] | < 1000 nM
CCOC(=O)c1ccccc1OC(=O)c1ccnc(CNCCCCN(CC)CC)c1 [drawing 270, 2-(ethoxycarbonyl)phenyl 2-({[4-(diethylamino)butyl]amino}methyl)pyridine-4-carboxylate] | < 1000 nM
CCN(CCN(C)C)C(=O)CNCc1cc(C(=O)OC(C)CCN(C)C(=O)C(F)(F)F)ccn1 (stereo not shown) [drawing 281, 4-(2,2,2-trifluoro-N-methylacetamido)butn-2-yl 2-{[({[2-(dimethylamino)ethyl](ethyl)carbamoyl}methyl)amino]methyl}pyridine-4-carboxylate] | < 1000 nM
CN(CCCCN(Cc1ccccc1)C1CC1)C(=O)CNCc1cc(C(=O)O)ccn1 [drawing 267, 2-({[({4-[benzyl(cyclopropyl)amino]butyl)(methyl)carbamoyl)methyl]amino}methyl)pyridine-4-carboxylic acid] | > 50000 nM

The molecules below were run against T1, PLU1 (KDM5B) (Homo sapiens, UniProt Q9UGL1) (assay: Immunofluorescence assay in U2OS cells transfected with pCMVHA PLU1 (H3K4me2 mark)). Details: 20 hours.
T1 construct: (1-752); host or cells: U2OS
T1 sequence (Q9UGL1 1-752): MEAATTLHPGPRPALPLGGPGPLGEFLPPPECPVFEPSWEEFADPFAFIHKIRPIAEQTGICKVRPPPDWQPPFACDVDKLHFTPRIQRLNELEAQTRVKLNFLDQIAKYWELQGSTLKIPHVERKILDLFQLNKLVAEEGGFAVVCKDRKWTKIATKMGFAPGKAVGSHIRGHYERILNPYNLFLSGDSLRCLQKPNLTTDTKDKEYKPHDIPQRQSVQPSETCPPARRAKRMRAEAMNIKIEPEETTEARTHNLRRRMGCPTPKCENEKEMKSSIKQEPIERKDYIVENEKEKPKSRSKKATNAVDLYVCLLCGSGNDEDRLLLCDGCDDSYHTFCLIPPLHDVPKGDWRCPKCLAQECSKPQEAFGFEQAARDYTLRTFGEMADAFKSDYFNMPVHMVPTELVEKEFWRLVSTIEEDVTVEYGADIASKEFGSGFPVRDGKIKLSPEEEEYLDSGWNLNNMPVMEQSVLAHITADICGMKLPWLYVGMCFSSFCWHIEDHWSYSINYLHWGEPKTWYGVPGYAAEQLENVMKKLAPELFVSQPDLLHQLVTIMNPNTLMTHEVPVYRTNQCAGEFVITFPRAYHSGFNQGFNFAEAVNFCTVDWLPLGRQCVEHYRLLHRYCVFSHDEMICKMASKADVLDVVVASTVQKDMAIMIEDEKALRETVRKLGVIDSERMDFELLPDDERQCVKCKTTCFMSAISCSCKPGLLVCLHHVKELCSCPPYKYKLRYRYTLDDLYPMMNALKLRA
Format: cell-based
Description: U2OS cells were seeded 24 hours before transfection. Transfection was performed with Fugene HD transfection reagent as recommended by the manufacturer. 6 hours after transfection, the cells were harvested and seeded into multi well plates into media containing compound. The media used was DMEM containing 5% FBS and pen/strep. 20 hours after incubation of cells with compounds, the cells were washed once in PBS, harvested by fixation with formaldehyde 4% aqueous solution, and washed 2 times in PBS. Subsequently, the cells were permeabilized in PBS with 0.2% Triton X-100 for 10 min at room temperature. Blocking was performed in PBS with 0.2% Triton X-100 and 5% FBS for 45 min at room temperature. The cells were incubated with primary antibodies diluted 1 μg/ml in blocking solution over night at 4° C. The primary antibodies used in the assays were HA.11 (Covance, MMS-101P) and the antibody detecting the mark specified in the Table 6 below. After incubation with primary antibodies, the cells were washed 3 times with PBS, incubated with secondary antibodies diluted 1:1000 (Alexa fluor 594 goat anti rabbit IgG, Invitrogen, A11012; Alexa flour 488 donkey anti mouse IgG, Invitrogen, A21202) and Hoechst, 20 μg/ml (Sigma, 33342) in blocking solution, and washed again 3 times with PBS. Finally, PBS was added and high throughput imaging and analysis were performed by an IN Cell Analyzer 1000 (GE Healthcare). The robot software analyzed individual cells and divided these into HA^+ (transfected cells) and HA^− (non-transfected cells). The IC50 values in Table 7 below were based on an average measure of the staining of the mark specified in the Table 6 below in the transfected cells.

SMILES | IC50
CCCCN1CCCC1CCNCc1cc(C(=O)O)ccn1 (stereo not shown) [drawing 321, 2-({[2-(1-butylpyrrolidin-2-yl)ethyl]amino}methyl) pyridine-4-carboxylic acid] | 1000 to 50000 nM
CN(CCCCN(Cc1ccccc1)C1CC1)C(=O)CNCc1cc(C(=O)O)ccn1 [drawing 323] | > 50000 nM
CCN(CCC#N)C(=O)CNCc1cc(C(=O)O)ccn1 [drawing 320, 2-[({[(2-cyanoethyl)(ethyl)carbamoyl]methyl}amino)methyl] pyridine-4-carboxylic acid] | 1000 to 50000 nM
